Results from article PMC5766581, “NF-κB inducing kinase is a therapeutic target for systemic lupus erythematosus” (Nature Communications, 2018).

Tests used:
Test in all cases: SelectScreen kinase panel
Format in all cases: biochemical
CDK2/CyclinA = molecular target: T1, CDK2/CyclinA (Homo sapiens, UniProt P24941)
T1 construct: purchased Invitrogen / ThermoFisher SelectScreen
Method in brief: (§1)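 Invitrogen carries out the selectivity screen with its SelectScreen platform, applying either activity assays (Z′-LYTE peptide phosphorylation, Adapta ADP measurement) or a LanthaScreen ATP-pocket binding assay, per kinase. Results are averaged % inhibition.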

CDK9/cyclinT1 = molecular target: T2, CDK9/cyclinT1 (Homo sapiens, UniProt P50750)
T2 construct: purchased Invitrogen / ThermoFisher SelectScreen
Method in brief: as §1

CK1_gamma1 = molecular target: T3, CK1_gamma1 (Homo sapiens, UniProt Q9HCP0)
T3 construct: purchased Invitrogen / ThermoFisher SelectScreen
Method in brief: as §1

CaMKI_delta = molecular target: T4, CaMKI_delta (Homo sapiens, UniProt Q8IU85)
T4 construct: purchased Invitrogen / ThermoFisher SelectScreen
Method in brief: as §1

DNA-PK = molecular target: T5, DNA-PK (Homo sapiens, UniProt P78527)
T5 construct: purchased Invitrogen / ThermoFisher SelectScreen
Method in brief: as §1

DYRK1A = molecular target: T6, DYRK1A (Homo sapiens, UniProt Q13627)
T6 construct: purchased Invitrogen / ThermoFisher SelectScreen
Method in brief: as §1

ErbB4 = molecular target: T7, ErbB4 (Homo sapiens, UniProt Q15303)
T7 construct: purchased Invitrogen / ThermoFisher SelectScreen
Method in brief: as §1

Flt1 = molecular target: T8, Flt1 (Homo sapiens, UniProt P17948)
T8 construct: purchased Invitrogen / ThermoFisher SelectScreen
T8 sequence (P17948 27-1338): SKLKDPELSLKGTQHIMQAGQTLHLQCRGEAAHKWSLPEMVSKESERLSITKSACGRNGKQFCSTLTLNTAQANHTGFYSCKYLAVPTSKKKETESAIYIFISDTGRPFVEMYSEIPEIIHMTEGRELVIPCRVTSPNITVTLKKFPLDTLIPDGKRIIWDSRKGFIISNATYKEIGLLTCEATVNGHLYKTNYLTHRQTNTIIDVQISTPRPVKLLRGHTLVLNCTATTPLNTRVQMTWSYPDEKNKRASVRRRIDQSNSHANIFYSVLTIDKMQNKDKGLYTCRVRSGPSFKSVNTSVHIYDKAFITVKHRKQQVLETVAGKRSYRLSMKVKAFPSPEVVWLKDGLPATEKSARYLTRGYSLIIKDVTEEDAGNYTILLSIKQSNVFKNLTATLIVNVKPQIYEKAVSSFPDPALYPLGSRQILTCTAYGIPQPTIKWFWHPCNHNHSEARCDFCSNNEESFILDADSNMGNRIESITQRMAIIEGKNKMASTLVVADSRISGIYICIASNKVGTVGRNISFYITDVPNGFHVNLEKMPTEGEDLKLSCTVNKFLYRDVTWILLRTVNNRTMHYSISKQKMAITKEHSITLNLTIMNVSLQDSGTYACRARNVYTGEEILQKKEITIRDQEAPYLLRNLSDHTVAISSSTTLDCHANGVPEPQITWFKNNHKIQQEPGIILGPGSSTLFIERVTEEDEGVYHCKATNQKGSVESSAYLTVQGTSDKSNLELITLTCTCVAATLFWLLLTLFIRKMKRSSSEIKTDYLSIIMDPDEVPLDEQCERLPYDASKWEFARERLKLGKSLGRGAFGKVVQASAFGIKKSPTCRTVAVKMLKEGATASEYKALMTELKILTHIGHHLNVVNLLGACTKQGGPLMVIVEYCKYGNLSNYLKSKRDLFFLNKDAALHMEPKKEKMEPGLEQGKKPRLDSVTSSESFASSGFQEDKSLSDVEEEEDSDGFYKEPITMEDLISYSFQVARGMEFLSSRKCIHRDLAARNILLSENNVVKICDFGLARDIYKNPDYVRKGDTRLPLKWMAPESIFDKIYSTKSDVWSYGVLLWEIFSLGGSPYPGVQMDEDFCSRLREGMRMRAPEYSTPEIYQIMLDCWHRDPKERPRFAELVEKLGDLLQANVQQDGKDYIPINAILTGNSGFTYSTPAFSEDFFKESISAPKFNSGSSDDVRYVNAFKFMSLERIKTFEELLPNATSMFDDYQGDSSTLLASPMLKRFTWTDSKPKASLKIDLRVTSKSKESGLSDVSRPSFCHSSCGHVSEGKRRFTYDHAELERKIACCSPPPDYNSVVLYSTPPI
Method in brief: as §1

GRK3 = molecular target: T9, GRK3 (Homo sapiens, UniProt P35626)
T9 construct: purchased Invitrogen / ThermoFisher SelectScreen
Method in brief: as §1

GSK3_alpha = molecular target: T10, GSK3_alpha (Homo sapiens, UniProt P49840)
T10 construct: purchased Invitrogen / ThermoFisher SelectScreen
Method in brief: as §1

GSK3_beta = molecular target: T11, GSK3_beta (Homo sapiens, UniProt P49841)
T11 construct: purchased Invitrogen / ThermoFisher SelectScreen
T11 sequence (P49841 whole entry): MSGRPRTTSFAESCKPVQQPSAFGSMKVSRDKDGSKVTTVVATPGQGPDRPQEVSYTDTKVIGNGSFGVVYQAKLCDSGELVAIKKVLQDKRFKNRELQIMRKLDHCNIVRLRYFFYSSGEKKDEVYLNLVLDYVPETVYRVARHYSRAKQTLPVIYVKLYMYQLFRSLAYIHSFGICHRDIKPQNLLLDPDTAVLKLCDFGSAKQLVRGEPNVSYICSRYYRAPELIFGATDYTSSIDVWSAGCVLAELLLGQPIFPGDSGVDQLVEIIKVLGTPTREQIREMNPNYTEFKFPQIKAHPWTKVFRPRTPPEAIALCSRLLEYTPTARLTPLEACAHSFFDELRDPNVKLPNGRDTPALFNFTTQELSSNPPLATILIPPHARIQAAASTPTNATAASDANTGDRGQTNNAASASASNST
Method in brief: as §1

HIPK2 = molecular target: T12, HIPK2 (Homo sapiens, UniProt Q9H2X6)
T12 construct: purchased Invitrogen / ThermoFisher SelectScreen
Method in brief: as §1

IRR = molecular target: T13, IRR (Homo sapiens, UniProt P14616)
T13 construct: purchased Invitrogen / ThermoFisher SelectScreen
Method in brief: as §1

ITK = molecular target: T14, ITK (Homo sapiens, UniProt Q08881)
T14 construct: purchased Invitrogen / ThermoFisher SelectScreen
T14 sequence (Q08881 whole entry): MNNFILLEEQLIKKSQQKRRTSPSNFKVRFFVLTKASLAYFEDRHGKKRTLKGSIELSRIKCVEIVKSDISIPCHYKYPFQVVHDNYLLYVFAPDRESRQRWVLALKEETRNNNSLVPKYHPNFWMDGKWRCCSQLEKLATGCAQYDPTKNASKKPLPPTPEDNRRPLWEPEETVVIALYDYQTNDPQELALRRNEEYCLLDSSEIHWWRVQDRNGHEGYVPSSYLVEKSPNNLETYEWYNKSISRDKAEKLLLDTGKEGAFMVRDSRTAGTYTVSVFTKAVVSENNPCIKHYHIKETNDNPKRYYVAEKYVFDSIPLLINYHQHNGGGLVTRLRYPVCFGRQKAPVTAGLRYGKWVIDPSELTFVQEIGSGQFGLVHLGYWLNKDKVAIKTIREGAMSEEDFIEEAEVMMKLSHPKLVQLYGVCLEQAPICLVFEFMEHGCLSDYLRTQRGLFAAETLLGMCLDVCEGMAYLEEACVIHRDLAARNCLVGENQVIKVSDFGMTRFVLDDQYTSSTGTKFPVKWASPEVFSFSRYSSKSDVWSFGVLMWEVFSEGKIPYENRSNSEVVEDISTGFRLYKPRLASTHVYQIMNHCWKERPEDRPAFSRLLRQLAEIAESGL
Method in brief: as §1

Kit = molecular target: T15, Kit (Homo sapiens, UniProt P10721)
T15 construct: purchased Invitrogen / ThermoFisher SelectScreen
Method in brief: as §1

MARK3 = molecular target: T16, MARK3 (Homo sapiens, UniProt P27448)
T16 construct: purchased Invitrogen / ThermoFisher SelectScreen
T16 sequence (P27448 whole entry): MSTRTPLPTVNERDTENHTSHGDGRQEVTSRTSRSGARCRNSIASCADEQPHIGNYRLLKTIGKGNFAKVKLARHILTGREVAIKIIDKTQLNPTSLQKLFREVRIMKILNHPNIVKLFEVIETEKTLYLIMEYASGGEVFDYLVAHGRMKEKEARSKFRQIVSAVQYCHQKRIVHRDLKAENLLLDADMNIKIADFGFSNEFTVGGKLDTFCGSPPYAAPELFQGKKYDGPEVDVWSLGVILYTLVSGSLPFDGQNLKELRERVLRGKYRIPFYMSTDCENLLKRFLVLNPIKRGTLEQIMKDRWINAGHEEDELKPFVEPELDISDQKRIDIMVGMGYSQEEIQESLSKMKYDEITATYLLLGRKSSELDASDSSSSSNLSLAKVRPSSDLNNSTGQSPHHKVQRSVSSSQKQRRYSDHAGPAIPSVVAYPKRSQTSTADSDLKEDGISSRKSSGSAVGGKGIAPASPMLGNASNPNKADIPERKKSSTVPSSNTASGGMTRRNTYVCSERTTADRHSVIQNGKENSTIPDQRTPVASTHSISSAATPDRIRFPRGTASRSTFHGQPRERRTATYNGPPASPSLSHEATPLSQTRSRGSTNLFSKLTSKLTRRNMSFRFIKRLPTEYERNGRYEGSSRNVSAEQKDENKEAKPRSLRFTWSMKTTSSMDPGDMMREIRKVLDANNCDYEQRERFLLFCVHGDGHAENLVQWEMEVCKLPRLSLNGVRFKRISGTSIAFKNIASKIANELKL
Method in brief: as §1

MKNK1 = molecular target: T17, MKNK1 (Homo sapiens, UniProt Q9BUB5)
T17 construct: purchased Invitrogen / ThermoFisher SelectScreen
Method in brief: as §1

MSSK1 = molecular target: T18, MSSK1 (Homo sapiens, UniProt Q9UPE1)
T18 construct: purchased Invitrogen / ThermoFisher SelectScreen
Method in brief: as §1

MST4 = molecular target: T19, MST4 (Homo sapiens, UniProt Q9P289)
T19 construct: purchased Invitrogen / ThermoFisher SelectScreen
Method in brief: as §1

MuSK = molecular target: T20, MuSK (Homo sapiens, UniProt O15146)
T20 construct: purchased Invitrogen / ThermoFisher SelectScreen
Method in brief: as §1

P38_gamma = molecular target: T21, P38_gamma (Homo sapiens, UniProt P53778)
T21 construct: purchased Invitrogen / ThermoFisher SelectScreen
Method in brief: as §1

PDK1 = molecular target: T22, PDK1 (Homo sapiens, UniProt O15530)
T22 construct: purchased Invitrogen / ThermoFisher SelectScreen
T22 sequence (O15530 whole entry): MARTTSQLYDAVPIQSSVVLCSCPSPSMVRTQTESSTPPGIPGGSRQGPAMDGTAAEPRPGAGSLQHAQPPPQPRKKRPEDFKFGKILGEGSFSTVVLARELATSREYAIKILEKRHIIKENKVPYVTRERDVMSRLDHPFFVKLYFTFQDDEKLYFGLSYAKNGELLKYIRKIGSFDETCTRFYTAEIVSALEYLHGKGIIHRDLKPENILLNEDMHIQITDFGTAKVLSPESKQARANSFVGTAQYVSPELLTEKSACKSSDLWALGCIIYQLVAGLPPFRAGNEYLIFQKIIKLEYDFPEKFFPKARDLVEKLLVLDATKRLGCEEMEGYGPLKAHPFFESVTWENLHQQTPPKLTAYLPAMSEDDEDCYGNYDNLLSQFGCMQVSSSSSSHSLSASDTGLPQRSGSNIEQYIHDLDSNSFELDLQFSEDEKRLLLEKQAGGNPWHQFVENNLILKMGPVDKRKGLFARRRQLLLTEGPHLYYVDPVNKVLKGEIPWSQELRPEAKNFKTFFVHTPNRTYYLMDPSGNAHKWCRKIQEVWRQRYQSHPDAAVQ
Method in brief: as §1

PKG1_alpha = molecular target: T23, PKG1_alpha (Homo sapiens, UniProt Q13976)
T23 construct: purchased Invitrogen / ThermoFisher SelectScreen
Method in brief: as §1

PLK1 = molecular target: T24, PLK1 (Homo sapiens, UniProt P53350)
T24 construct: purchased Invitrogen / ThermoFisher SelectScreen
T24 sequence (P53350 whole entry): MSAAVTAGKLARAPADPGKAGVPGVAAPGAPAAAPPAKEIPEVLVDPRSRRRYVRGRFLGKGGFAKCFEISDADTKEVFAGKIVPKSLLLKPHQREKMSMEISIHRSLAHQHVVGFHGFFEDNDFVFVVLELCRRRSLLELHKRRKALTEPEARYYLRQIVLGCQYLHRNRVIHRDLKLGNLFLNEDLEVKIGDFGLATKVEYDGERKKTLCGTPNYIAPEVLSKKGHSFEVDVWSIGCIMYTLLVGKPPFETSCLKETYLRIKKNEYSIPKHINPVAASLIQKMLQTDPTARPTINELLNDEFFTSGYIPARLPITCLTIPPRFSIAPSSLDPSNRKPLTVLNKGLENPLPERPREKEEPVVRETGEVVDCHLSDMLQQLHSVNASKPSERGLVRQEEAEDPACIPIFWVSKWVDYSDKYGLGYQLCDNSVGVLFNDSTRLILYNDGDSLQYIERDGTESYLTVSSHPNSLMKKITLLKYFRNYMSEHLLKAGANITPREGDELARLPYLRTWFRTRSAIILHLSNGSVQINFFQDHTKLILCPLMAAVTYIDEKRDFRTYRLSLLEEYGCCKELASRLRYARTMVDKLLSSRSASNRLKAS
Method in brief: as §1

PLK3 = molecular target: T25, PLK3 (Homo sapiens, UniProt Q9H4B4)
T25 construct: purchased Invitrogen / ThermoFisher SelectScreen
Method in brief: as §1

Ret = molecular target: T26, Ret (Homo sapiens, UniProt P07949)
T26 construct: purchased Invitrogen / ThermoFisher SelectScreen
Method in brief: as §1

Ron = molecular target: T27, Ron (Homo sapiens, UniProt Q04912)
T27 construct: purchased Invitrogen / ThermoFisher SelectScreen
Method in brief: as §1

Ros = molecular target: T28, Ros (Homo sapiens, UniProt P08922)
T28 construct: purchased Invitrogen / ThermoFisher SelectScreen
Method in brief: as §1

SPHK1 = molecular target: T29, SPHK1 (Homo sapiens, UniProt Q9NYA1)
T29 construct: purchased Invitrogen / ThermoFisher SelectScreen
Method in brief: as §1

SRPK1 = molecular target: T30, SRPK1 (Homo sapiens, UniProt Q96SB4)
T30 construct: purchased Invitrogen / ThermoFisher SelectScreen
Method in brief: as §1

Srm = molecular target: T31, Srm (Homo sapiens, UniProt Q9H3Y6)
T31 construct: purchased Invitrogen / ThermoFisher SelectScreen
Method in brief: as §1

TBK1 = molecular target: T32, TBK1 (Homo sapiens, UniProt Q9UHD2)
T32 construct: purchased Invitrogen / ThermoFisher SelectScreen
T32 sequence (Q9UHD2 whole entry): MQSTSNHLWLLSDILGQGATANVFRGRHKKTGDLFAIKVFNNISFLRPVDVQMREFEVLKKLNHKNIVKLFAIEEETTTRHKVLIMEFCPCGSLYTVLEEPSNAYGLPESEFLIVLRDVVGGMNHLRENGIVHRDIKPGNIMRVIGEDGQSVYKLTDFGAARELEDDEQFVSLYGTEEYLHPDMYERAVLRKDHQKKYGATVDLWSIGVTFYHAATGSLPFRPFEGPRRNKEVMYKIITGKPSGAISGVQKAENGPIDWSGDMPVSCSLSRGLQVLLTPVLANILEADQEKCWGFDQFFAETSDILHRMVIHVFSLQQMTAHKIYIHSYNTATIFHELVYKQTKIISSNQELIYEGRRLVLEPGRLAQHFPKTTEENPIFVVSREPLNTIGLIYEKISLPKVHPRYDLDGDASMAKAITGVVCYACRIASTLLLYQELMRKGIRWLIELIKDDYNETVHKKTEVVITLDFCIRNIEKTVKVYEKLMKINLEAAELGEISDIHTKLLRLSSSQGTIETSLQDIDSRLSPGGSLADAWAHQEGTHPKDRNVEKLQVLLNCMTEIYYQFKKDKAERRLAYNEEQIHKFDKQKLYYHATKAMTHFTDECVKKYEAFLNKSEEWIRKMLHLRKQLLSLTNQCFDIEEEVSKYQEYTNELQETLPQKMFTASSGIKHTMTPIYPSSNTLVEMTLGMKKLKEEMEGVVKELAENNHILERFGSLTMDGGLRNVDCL
Method in brief: as §1

mTOR = molecular target: T33, mTOR (Homo sapiens, UniProt P42345)
T33 construct: purchased Invitrogen / ThermoFisher SelectScreen
Method in brief: as §1

COc1cc(C(N)=O)nc(-c2cccc(C#C[C@]3(O)CCN(C)C3=O)c2)c1 [NIK SMI1]
inhibition at 1 µM (CDK2/CyclinA): -1.5% | inhibition at 1 µM (CDK9/cyclinT1): 15.3% | inhibition at 1 µM (CK1_gamma1): 2.5% | inhibition at 1 µM (CaMKI_delta): 15% | inhibition at 1 µM (DNA-PK): -4% | inhibition at 1 µM (DYRK1A): 4.5% | inhibition at 1 µM (ErbB4): 7% | inhibition at 1 µM (Flt1): 7% | inhibition at 1 µM (GRK3): 1.5% | inhibition at 1 µM (GSK3_alpha): 15% | inhibition at 1 µM (GSK3_beta): 5% | inhibition at 1 µM (HIPK2): 17.5% | inhibition at 1 µM (IRR): 5% | inhibition at 1 µM (ITK): -3% | inhibition at 1 µM (Kit): -3.5% | inhibition at 1 µM (MARK3): 7.5% | inhibition at 1 µM (MKNK1): 2% | inhibition at 1 µM (MSSK1): 11.5% | inhibition at 1 µM (MST4): 33.5% | inhibition at 1 µM (MuSK): 6% | inhibition at 1 µM (P38_gamma): 14% | inhibition at 1 µM (PDK1): -0.5% | inhibition at 1 µM (PKG1_alpha): 14.5% | inhibition at 1 µM (PLK1): 1.5% | inhibition at 1 µM (PLK3): 9% | inhibition at 1 µM (Ret): 2% | inhibition at 1 µM (Ron): 13% | inhibition at 1 µM (Ros): 12.5% | inhibition at 1 µM (SPHK1): 21.3% | inhibition at 1 µM (SRPK1): 8.5% | inhibition at 1 µM (Srm): 12% | inhibition at 1 µM (TBK1): 26.5% | inhibition at 1 µM (mTOR): -1%
